Results reported in patent publication US9757477B2, “Imaging brown adipose tissue with curcumin derivatives” (The General Hospital Corporation, priority 2013, dated 2017).
Where “and” joins values, the source holds several entries; their conditions need not be identical. Equal entries are not always repeated.

Key:
inguinal sWAT = test: Monitoring browning of subcutaneous WAT after CL 316,243 treatment; type: in vivo, C57BL6 mice; settings: CL 316,243 1.0 mg/kg i.p. for 12 days
Protocol: (§1) Two-month old C57BL6 mice (n=5) were i.p. injected CL 316,243 (100 uL, 1.0 mg/kg) for 12 days, and the control mice (n=5) were i.p. injected with saline. On the 13th day, both groups were imaged after i.v. injection of CRANAD-29. Images were acquired at 1-, 2-, 4-hours after the probe injection. After the last imaging session, inguinal sWAT were dissected after scarification of the mice, and the dissected sWAT tissue was subjected to qPCR for UCP-1 expression and H&E staining

UCP-1 = test: qPCR for UCP-1 expression in dissected sWAT; type: in vivo, C57BL6 mice; settings: CL 316,243 1.0 mg/kg i.p. for 12 days
Protocol: as §1

interscapular BAT [1] = test: Time course and dose optimization of probe signal in BAT area after i.v. injection; type: in vivo, mice; settings: mouse, in vivo, iv
Protocol: (§2) Next the time course of CRANAD-2 and CRANAD-3 accumulation in BAT area was investigated. […] Similarly, the signal of CRANAD-3 reached the uptake peak around one hour, and then gradually washed out (FIG. 8c-d). Accumulation of CRANAD-2 and -3 in BAT was further confirmed with ex vivo histology of the dissected BAT slices, performed as follows. The dissected BAT was fixed with 4% formalin at 4° C. overnight, and then embedded into OCT. BAT tissue was cut into 7 micron thickness slices, washed with PBS buffer, and co-stained with DAPI (Vectra Shield, Vector Lab, Burlingame, Calif.). Images were acquired with fast exposure to capture the dye signal in the oil droplets. To outline cell membrane cell autofluorescence was captured with long exposure after image of the dye signal from oil droplets was already acquired. To further validate the capacity of CRANAD-29 for BAT labeling, ex vivo histological microscopic imaging with CRANAD-29 was conducted. […] Gold standard H&E staining also provided similar images (FIG. 10a). […] The injection dose of CRANAD-29 was optimized, and the fluorescence signal reached its plateau at 0.4 mg/kg (FIG. 11). In the following studies, 0.1 mg/kg dose was used.

[2] = Excitation and emission wavelengths of BAT imaging agents; type: physicochemical
Protocol: In some embodiments, the methods include irradiating the mammal with light of the appropriate wavelength to excite the BAT imaging agent, and detecting emissions therefrom.
Fluorescent dyes were purchased from Exciton Inc. (Dayton, Ohio) and Invitrogen. The reagents used for the synthesis were purchased from Aldrich and used without further purification. Column chromatography was performed on silica gel (SiliCycle Inc., 60 Å, […]) slurry packed into glass columns. 1H, 13C NMR spectra were recorded at 500 MHz and 125 MHz respectively, and reported in ppm downfield from tetramethylsilane. Fluorescence studies were carried out using a F-4500 Fluorescence Spectrophotometer (Hitachi). Mass spectra were obtained at Harvard University, Department of Chemistry Instrumentation Facility. Microscopic images were acquired with Nikon Eclipse 50i microscope. In vivo NIR imaging was performed using the IVIS® Spectrum animal imaging system (Caliper LifeSciences, Perkin Elmer, Hopkinton, Mass.), and data analysis was conducted using LivingImage® 4.2.1 software.

brown adipose cells = test: Ex vivo histology of dissected BAT slices; parameters: species or system mice; settings: fluorescence microscopy
Protocol: as §2

[3] = test system: BAT cells induced from wild-type brown preadipocytes; test: In vitro staining of BMPs-induced BAT cells (live cell confocal); type: cell-based; settings: live cell confocal images
interscapular BAT [4] = test: Top-down whole-organism NIR fluorescence screening of dyes (ROI1/ROI2 contrast); type: in vivo, nude mice; settings: for Ratio No 1 (ROI1/ROI2 average fluorescence intensity) / Ratio No 2 (ROI1/ROI2 average fluorescence intensity) / Ratio No 3 (ROI1/ROI2 average fluorescence intensity) / Ratio AVERAGE (mean ratio ROI1/ROI2): nude mice, one hour post-injection; for Ratio No 1 (ROI1/ROI2 average fluorescence intensity) / Ratio No 2 (ROI1/ROI2 average fluorescence intensity) / Ratio No 3 (ROI1/ROI2 average fluorescence intensity): 10 μg/mouse i.v.; for Ratio No 1 (ROI1/ROI2 average fluorescence intensity): first excitation/emission filter pair; for Ratio No 2 (ROI1/ROI2 average fluorescence intensity): second excitation/emission filter pair; for Ratio No 3 (ROI1/ROI2 average fluorescence intensity): third excitation/emission filter pair; for Ratio AVERAGE (mean ratio ROI1/ROI2): i.v., mean of three filter pairs, hit threshold >1.10
Protocol: 38 fluorescent dyes from commercial resources and from the inventors' laboratory were screened. Dyes with excitation range of 550-745 nm, emission range of 600-840 nm, and with molecular weight of less than 700 Da (except Cy5.5) (representative dyes are listed in FIG. 1d and the full list is shown in Table 2). Their hydrophobicities were not determined. The library was screened by intravenous tail injection of compounds into nude mice (10μg/mouse). Each dye was imaged with three optimized excitation/emission filter-pairs, and images at one hour after i.v. injection were acquired.
Top-down whole organism screening was performed as follows. Nude mice (nu/nu COX7) were purchased from Massachusetts General Hospital and Balb/c mice were from Jackson Laboratory. All animal experimental procedures were approved by the Institutional Animal Care and Use Committee (IACUC) at Massachusetts General Hospital. Dye stock solutions were prepared in DMSO. The final injection solution (0.1 mg/ml) was freshly prepared in a mixed solution of 20% DMSO, 20% Cremophor EL and 60% saline. Nude mice (n=5) were injected with a 100 μL dye solution via tail vein. For each imaging session, mice were anesthetized with a mixture of oxygen and isoflurane for 5 minutes, and then positioned into the imaging chamber of IVIS® Spectrum in vivo pre-clinical imaging system. Images were acquired at one-hour post-injection using sequence imaging with three excitation/emission filter pairs for each dye.
Hits selection was performed as follows. Hits from cell- or protein-based screening are usually selected by setting certain threshold. In the case of the top-down imaging screening, two methods were used (threshold and visible contrast) to select hits. First, three images obtained with three excitation/emission pairs were selected for each dye. These ex/em pairs were selected from the closest excitation and emission wavelengths of the tested dyes. For instance, 605/660 nm, 605/680 nm, 640/680 nm were selected for image acquisition of Nile blue (625/660 nm). The quantification of contrast for each image was calculated as a ratio of two ROIs (region of interest). ROI1 reflected the average signal from interscapular BAT and ROI2 was the average signal of the area that included BAT and white adipose tissue (WAT) around the interscapular site (FIG. 1b, left). The averaged fluorescent signal of ROI was used instead of the total signal, because the total signal depends on the area of ROI, whereas the averaged signal reflects the density of signal. The ratio of ROI1/ROI2 could reflect the signal/noise ratio of the tested probe, and could also reflect the selectivity of the probe for BAT over WAT. For each dye, three ROI1/ROI2 ratios obtained with the three filter pairs were calculated. The mean of the ratios was used as the threshold. If the mean ratio was >1.10, the dye was selected as a potential positive hit (FIG. 1c). Since the contrast of a dye in the top-down screening is in the visible range, the visible contrast around the interscapular BAT area was also tested for the hits with the mean ratio of >1.10. If both mean ratio and the visible contrast were positive, then the hit was subjected to re-testing procedure to validate its reliability as described below.
Although CRANAD-2 and CRANAD-3 were able to provide certain contrast for BAT in vivo, their excitation and emission wavelengths were still shorter than required for an ideal NIR imaging probe (both excitation and emission >640 nm). […] To seek better probes, a sub-library was synthesized based on the structures of the lead probes CRANAD-2 and -3. CRANAD-6, -19, -22, -24, -26, -32 and -43 were synthesized and tested (images and chemical structures, excitation and emission spectra are shown in FIG. 9 a-e). […] However, the ROI1/ROI2 ratio of CRANAD-22 was not improved (FIG. 9c).

interscapular BAT [5] = test: Re-testing of hits with stepwise dissection and NIR imaging; type: in vivo, mice
Protocol: Like protein/cell-based screening, hit re-testing experiments were conducted to validate the reliability of this approach. CRANAD-2, -3, LDS 722 and Rhodamine 640 were subjected to re-testing by repeating the above imaging procedure. Images were acquired one hour after probe injection.
Next, stepwise dissection and imaging were performed to track the source of the fluorescence contrast at the interscapular site. Skin and the thin WAT layer that covers BAT were first removed, and then BAT was dissected, and NIR images were captured at each step. […] The signal contribution from BAT (R(BAT)) was roughly estimated using the ratio of fluorescence signals acquired after (F(BAT)) and before (F(intact)) the first step dissection of skin and WAT.

interscapular BAT [6] = test: PET imaging with 18F-labeled curcumin analogue; type: in vivo, mice; settings: 100-180 μCi tail vein
Protocol: PET imaging was conducted with a microPET P4 system (Concorde Microsystems Incorporated, Knoxville, Tenn., USA). The imaging parameters of this system are in-plane and axial resolution of 1.2 mm full width at half maximal count. Prior to PET imaging, mice were anesthetized with isoflurane/O2, and then fixed to the imaging table with a custom-fabricated mold. Injection catheter was placed in tail vein for administration of the radiotracer. Subsequently, CRANAD-5F^18 (100-180 μCi) was injected into the tail vein and volumetric dynamic data were acquired in list-mode format for 120 min. Imaging data were corrected for uniformity, attenuation, decay, and acquisition time. PET images were reconstructed using filtered back projection with a Ramp filter (cutoff value of 0.5). The software, ASIPro 6.0, was provided by the microPET manufacturer.

[7] = test system: differentiated 3T3-L1 cells; test: Probe uptake in differentiated 3T3-L1 cells (IVIS and two-photon imaging, competition); type: cell-based
Protocol: (§3) To investigate the facilitated diffusion of CRANAD-2, the time courses of CRANAD-2 uptake in 3T3-L1 cells were compared before and after differentiation. Two-photon imaging for 3T3-L1 cells was performed as follows. Fibroblast 3T3-L1 cells were differentiated following the protocol provided by Zenbio, Inc. (protocol No. ZBM0009.02). Ten microliters of CRANAD-2 (250 μM in DMSO) was added to the differentiated cells (1.0 ml). Cells were imaged after 10 min of incubation. A 940 nm laser was first used to capture an image for CRANAD-2 in 570-620 nm channel (Prairie Two-photon microscope, Middleton, Wis.). Next, the laser was tuned to 750 nm to capture autofluorescence of the cells to outline cell morphology.
For triglyceride competition, stock solutions of CRANAD-2 (250 μM) and triglyceride (5 mM) in DMSO were prepared. Before imaging, 10 μl of the stock solution was added to the cells.
(§4) IVIS imaging of 3T3-L1 cells with CRANAD-2 was performed as follows. To a 6-well plate seeded with preadipocytes or differentiated adipocytes, a 10 μL solution of CRANAD-2 (250 μM in DMSO) was added. The plate was subjected to imaging using IVIS imaging system with Ex=605 nm, Em=660 nm before and after addition of CRANAD-2. For triglyceride competition, the same protocol for two-photon imaging was used. The images were acquired at 20 min after addition of CRANAD-2. Studies were performed in triplicate.
(§5) The uptake of CRANAD-29 in 3T3-L1 cells before and after differentiation was compared. IVIS imaging of 3T3-L1 cells with CRANAD-29 was performed as follows. To a 6-well plate seeded with preadipocytes or differentiated adipocytes, a 10 μL solution of CRANAD-29 (250 μM in DMSO) was added. The plate was subjected to imaging using IVIS imaging system with Ex=640 nm, Em=700 nm before and after addition of CRANAD-29. For triglyceride competition and Hexarelin inhibition, the similar protocol for CRANAD-2 imaging was used. The final concentration of hexarelin was 12.5 μM, and the images were acquired at 3 hours after addition of CRANAD-29 and triglyceride/Hexarelin. Studies were performed in triplicate.

[8] = test system: undifferentiated 3T3-L1 cells; test: Probe uptake in undifferentiated 3T3-L1 cells (IVIS imaging); type: cell-based
Protocol: as §3, §4, §5

SMILES: C[C@H](Cc1ccc2c(c1)OC(C(=O)[O-])(C(=O)[O-])O2)NC[C@H](O)c1cccc(Cl)c1.[Na+].[Na+] [CL 316,243]
- H&E staining of sWAT slice of treated mice (inguinal sWAT): cells with multilocular lipid droplets
- UCP-1 mRNA level in sWAT, treated mice vs control group (UCP-1): 7.9 fold

SMILES: CCN(CC)c1ccc(/C=C/C2=CC(/C=C/c3ccc(N(CC)CC)nc3)=[O+][B-](F)(F)O2)cn1 [CRANAD-3]
- time of uptake peak in BAT area (interscapular BAT [1]): around one
- Emission λ [2]: 660 nm
- Excitation λ [2]: 570 nm
- labeling in ex vivo histology of BAT slices (brown adipose cells): labeled oil droplets in brown adipose cells
- staining of oil droplets in BAT cells [3]: able to clearly label oil droplets in BAT cells
- visible contrast around the interscapular BAT area (interscapular BAT [4]; in vivo NIR images): best contrast and clear triangular contour
- Ratio No 1 (ROI1/ROI2 average fluorescence intensity) (interscapular BAT [4]): 1.34E+00
- Ratio No 2 (ROI1/ROI2 average fluorescence intensity) (interscapular BAT [4]): 1.33E+00
- Ratio No 3 (ROI1/ROI2 average fluorescence intensity) (interscapular BAT [4]): 1.31E+00
- Ratio AVERAGE (mean ratio ROI1/ROI2) (interscapular BAT [4]): 1.32 and 1.32E+00
- R(BAT), signal contribution from BAT, F(BAT)/F(intact) (interscapular BAT [5]; fluorescence after vs before dissection of skin and WAT, roughly estimated): 0.51
- contrast among the re-tested dyes (interscapular BAT [5]; images one hour after probe injection): highest contrast
- fluorescence signal from BAT (before vs after BAT removal) (interscapular BAT [5]; stepwise dissection): able to label BAT
- selectivity for BAT (over WAT) (interscapular BAT [5]; stepwise dissection): low

SMILES: CN(C)c1ccc(C=CC(O)=CC(=O)C=Cc2ccc(N(C)CC[18F])cc2)cc1 [CRANAD-5F]
- in vivo PET imaging of BAT (interscapular BAT [6]): clearly highlighted BAT at the interscapular site

SMILES: CC[N+](CC)=c1ccc2nc3c(cc(N)c4ccccc43)oc-2c1 [Nile Blue]
- uptake in differentiated cells over the time course ([7]; differentiated 3T3-L1 cells): rapidly reached the plateau
- uptake with triglyceride competition ([7]; triglyceride added with probe, two-photon microscopy and IVIS): no significant decrease in uptake
- uptake in undifferentiated cells over the time course [8]: rapidly reached the plateau
- Ratio No 1 (ROI1/ROI2 average fluorescence intensity) (interscapular BAT [4]): 1.00E+00
- Ratio No 2 (ROI1/ROI2 average fluorescence intensity) (interscapular BAT [4]): 9.89E−01
- Ratio No 3 (ROI1/ROI2 average fluorescence intensity) (interscapular BAT [4]): 9.62E−01
- Ratio AVERAGE (mean ratio ROI1/ROI2) (interscapular BAT [4]): 9.84E−01
